Test results taken from BindingDB's records for patent US12486274 (Verge Analytics, 2025).
pIC50: −log10 of the molar value.

Target: 1-phosphatidylinositol 3-phosphate 5-kinase (Homo sapiens, UniProt Q9Y2I7)
Test: Inhibition of PIKfyve
Description: The kinase reactions were assembled in 384-well plates (Greiner) in a total volume of […] as follows. Kinase protein was pre-diluted in an assay buffer comprising 25 mM HEPES, pH 7.5, 1 mM DTT, 2.5 mM MgCl2, and 2.5 mM MnCl2, and 0.005% Triton X-100, and dispensed into a 384-well plate (10 μL per well). Test compounds were serially pre-diluted in DMSO and added to the protein samples by acoustic dispensing (Labcyte Echo). The concentration of DMSO was equalized to 1% in all samples. All test compounds were tested at 12 concentrations. Apilimod was used as a reference compound and was tested in identical manner in each assay plate. Control samples (0%-inhibition, in the absence of inhibitor, DMSO only) and 100%-inhibition (in the absence of enzyme) were assembled in replicates of four and were used to calculate %-inhibition in the presence of compounds. The reactions were initiated by addition of 10 μL of 2× PI3P/PS substrate supplemented with ATP. The final concentration of enzyme was 2 nM, the final concentration of ATP was […], and the final concentration of PI3P/PS substrate was 1 μM (PI3P). The kinase reactions were allowed to proceed for 3 h at room temperature. Following incubation, the reactions were quenched by addition of […] of termination buffer (100 mM HEPES, pH 7.5, 0.01% Triton X-100, 20 mM EDTA).

1-phosphatidylinositol 3-phosphate 5-kinase, sequence (Q9Y2I7 whole entry): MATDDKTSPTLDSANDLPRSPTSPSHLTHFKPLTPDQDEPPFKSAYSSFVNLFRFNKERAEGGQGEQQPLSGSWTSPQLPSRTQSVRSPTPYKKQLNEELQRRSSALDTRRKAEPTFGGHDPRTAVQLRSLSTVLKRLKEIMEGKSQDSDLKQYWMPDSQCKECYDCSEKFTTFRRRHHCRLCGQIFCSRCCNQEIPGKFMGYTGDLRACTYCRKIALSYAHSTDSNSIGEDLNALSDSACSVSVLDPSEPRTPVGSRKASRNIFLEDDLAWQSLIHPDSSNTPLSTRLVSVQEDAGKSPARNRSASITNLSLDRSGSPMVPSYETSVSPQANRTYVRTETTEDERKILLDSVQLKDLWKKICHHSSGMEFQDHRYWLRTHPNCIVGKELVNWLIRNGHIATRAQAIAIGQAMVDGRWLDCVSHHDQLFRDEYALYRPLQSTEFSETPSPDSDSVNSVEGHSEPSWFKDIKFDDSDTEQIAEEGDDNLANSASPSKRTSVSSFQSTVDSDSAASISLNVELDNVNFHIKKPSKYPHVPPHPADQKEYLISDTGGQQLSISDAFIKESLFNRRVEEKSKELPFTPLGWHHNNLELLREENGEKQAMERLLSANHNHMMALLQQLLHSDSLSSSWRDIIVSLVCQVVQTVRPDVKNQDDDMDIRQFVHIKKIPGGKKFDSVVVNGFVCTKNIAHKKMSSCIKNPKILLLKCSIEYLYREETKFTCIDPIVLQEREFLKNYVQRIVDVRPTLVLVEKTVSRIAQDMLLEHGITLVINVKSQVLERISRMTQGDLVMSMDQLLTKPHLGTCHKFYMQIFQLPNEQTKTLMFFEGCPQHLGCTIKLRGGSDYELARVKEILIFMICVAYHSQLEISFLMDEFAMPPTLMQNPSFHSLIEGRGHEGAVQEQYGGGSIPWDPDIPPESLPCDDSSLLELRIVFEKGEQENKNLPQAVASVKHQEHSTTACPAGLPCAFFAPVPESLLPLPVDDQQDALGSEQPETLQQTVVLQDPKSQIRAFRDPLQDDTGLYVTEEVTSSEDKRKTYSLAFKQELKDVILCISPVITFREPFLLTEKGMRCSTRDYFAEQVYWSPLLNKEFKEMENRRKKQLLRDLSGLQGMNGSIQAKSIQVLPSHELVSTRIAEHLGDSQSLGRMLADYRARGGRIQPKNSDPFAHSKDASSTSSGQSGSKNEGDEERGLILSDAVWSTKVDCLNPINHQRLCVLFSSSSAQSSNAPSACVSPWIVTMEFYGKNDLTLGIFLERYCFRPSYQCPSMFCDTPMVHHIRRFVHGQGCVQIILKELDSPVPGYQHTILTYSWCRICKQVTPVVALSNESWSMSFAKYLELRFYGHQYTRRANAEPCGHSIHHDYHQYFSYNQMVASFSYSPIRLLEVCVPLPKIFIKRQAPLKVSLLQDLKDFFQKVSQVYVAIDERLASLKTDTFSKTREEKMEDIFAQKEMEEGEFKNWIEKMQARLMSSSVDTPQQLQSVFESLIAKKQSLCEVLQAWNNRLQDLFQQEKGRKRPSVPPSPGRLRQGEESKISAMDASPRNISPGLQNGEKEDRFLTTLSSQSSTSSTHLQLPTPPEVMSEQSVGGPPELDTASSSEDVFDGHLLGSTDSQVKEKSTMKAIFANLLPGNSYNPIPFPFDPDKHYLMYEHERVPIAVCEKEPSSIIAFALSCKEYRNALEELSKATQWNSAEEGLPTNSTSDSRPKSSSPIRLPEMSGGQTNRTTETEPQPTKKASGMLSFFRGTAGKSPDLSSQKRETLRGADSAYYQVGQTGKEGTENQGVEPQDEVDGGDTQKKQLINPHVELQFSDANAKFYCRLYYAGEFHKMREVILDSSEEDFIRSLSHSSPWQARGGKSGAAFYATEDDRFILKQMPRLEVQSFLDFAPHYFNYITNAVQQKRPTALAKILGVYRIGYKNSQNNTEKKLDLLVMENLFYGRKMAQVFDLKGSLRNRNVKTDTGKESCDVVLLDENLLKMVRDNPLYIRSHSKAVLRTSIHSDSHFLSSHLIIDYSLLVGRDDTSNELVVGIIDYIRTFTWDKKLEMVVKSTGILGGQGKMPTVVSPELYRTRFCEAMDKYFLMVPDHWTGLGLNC

- pIC50: 7.52
Compound: Nc1ccc(-c2cc3nc(-n4ccc(-c5ccccc5)n4)cc(N4CCOCC4)n3n2)cn1 [US12486274, Compound 98]
